Assays:
[1] = system: PC-3; assay: Cytotoxicity against human PC3 cells by SRB method; assay type: functional; conditions: read-out: ED50 (the source's name)
[2] = system: KB; assay: Cytotoxicity against human KB cells by SRB method; assay type: functional; conditions: read-out: ED50 (the source's name)
[3] = system: 1A9; assay: Cytotoxicity against human 1A9 cells by SRB method; assay type: functional; conditions: read-out: ED50 (the source's name)
[4] = system: SK-MEL-2; assay: Cytotoxicity against human SK-MEL-2 cells by SRB method; assay type: functional; conditions: read-out: ED50 (the source's name)
[5] = system: CAKI-1; assay: Cytotoxicity against human Caki1 cells by SRB method; assay type: functional; conditions: read-out: ED50 (the source's name)
[6] = Cytotoxicity against human KBVIN cells by SRB method; assay type: functional; conditions: read-out: ED50 (the source's name)
[7] = system: HCT-8; assay: Cytotoxicity against human HCT8 cells by SRB method; assay type: functional; conditions: read-out: ED50 (the source's name)
[8] = system: A549; assay: Cytotoxicity against human A549 cells by SRB method; assay type: functional; conditions: read-out: ED50 (the source's name)
[9] = Cytotoxicity against human U87MG cells by SRB method; assay type: functional, U-87MG ATCC; conditions: U-87 MG, read-out: ED50 (the source's name)
[10] = system: MCF7; assay: Cytotoxicity against human MCF7 cells by SRB method; assay type: functional; conditions: read-out: ED50 (the source's name)

SMILES | EC50 [1] | EC50 [2] | EC50 [3] | EC50 [4] | EC50 [5] | EC50 [6] | EC50 [7] | EC50 [8] | EC50 [9] | EC50 [10]
CO[C@@H]1[C@@H](O)[C@H](O[C@@H]2[C@@H](O)[C@H](O[C@H]3[C@H](O)[C@@H](O)[C@H](O[C@H]4[C@H](O[C@H]5CC[C@]6(C)[C@@H]7CC[C@]89C(=O)O[C@@](C)(CCC=C(C)C)[C@@]8(O)[C@@H](OC(C)=O)C[C@@]9(C)C7=CC[C@H]6C5(C)C)OC[C@@H](OS(=O)(=O)[O-])[C@@H]4O)O[C@@H]3CO)OC[C@H]2O)O[C@H](CO)[C@H]1O.[Na+] [INTERCEDENSIDE F] | 2.3 µg/mL | 3.2 µg/mL | 1.7 µg/mL | 2.1 µg/mL | 1.7 µg/mL | 3.2 µg/mL | 1.9 µg/mL | 1.7 µg/mL | 3.3 µg/mL | 2.1 µg/mL
CO[C@@H]1[C@@H](O)[C@H](O[C@@H]2[C@@H](O)[C@H](O[C@H]3[C@H](O)[C@@H](O)[C@H](O[C@H]4[C@H](O[C@H]5CC[C@]6(C)[C@@H]7CC[C@]89C(=O)O[C@@](C)(/C=C\C=C(C)C)[C@@]8(O)[C@@H](OC(C)=O)C[C@@]9(C)C7=CC[C@H]6C5(C)C)OC[C@@H](OS(=O)(=O)[O-])[C@@H]4O)O[C@@H]3CO)OC[C@H]2O)O[C@H](CO)[C@H]1O.[Na+] [LNTERCEDENSIDE D] | 3.3 µg/mL | 3.7 µg/mL | 2.4 µg/mL | 4.2 µg/mL | > 5 µg/mL | 4.3 µg/mL | 2.9 µg/mL | 1.8 µg/mL | 4.1 µg/mL | 2.4 µg/mL
CO[C@@H]1[C@@H](O)[C@H](O[C@@H]2[C@@H](O)[C@H](O[C@@H]3CO[C@@H](O[C@H]4[C@H](O[C@H]5CC[C@]6(C)[C@@H]7CC[C@]89C(=O)O[C@@](C)(/C=C\C=C(C)C)[C@@]8(O)[C@@H](OC(C)=O)C[C@@]9(C)C7=CC[C@H]6C5(C)C)OC[C@@H](OS(=O)(=O)[O-])[C@@H]4O)[C@H](O)[C@H]3O)OC[C@H]2O)O[C@H](CO)[C@H]1O.[Na+] [LNTERCEDENSIDE E] | 1.7 µg/mL | 1.9 µg/mL | 1.7 µg/mL | 1.6 µg/mL | 1.6 µg/mL | 2 µg/mL | 1.1 µg/mL | 1.4 µg/mL | 2.1 µg/mL | 1.4 µg/mL
CO[C@@H]1[C@@H](O)[C@H](O[C@@H]2[C@@H](O)[C@H](O[C@@H]3CO[C@@H](O[C@H]4[C@H](O[C@H]5CC[C@]6(C)[C@@H]7CC[C@]89C(=O)O[C@@](C)(/C=C\C=C(C)C)C8[C@@H](OC(C)=O)C[C@@]9(C)C7=CC[C@H]6C5(C)C)OC[C@@H](OS(=O)(=O)[O-])[C@@H]4O)[C@H](O)[C@H]3O)OC[C@H]2O)O[C@H](CO)[C@H]1O.[Na+] (stereo not given in full) [LNTERCEDENSIDE G] | 2 µg/mL | 3.3 µg/mL | 1.9 µg/mL | 2.4 µg/mL | 3.8 µg/mL | 3.9 µg/mL | 1.8 µg/mL | 1.6 µg/mL | 3.3 µg/mL | 2 µg/mL
CO[C@@H]1[C@@H](O)[C@H](O[C@@H]2[C@@H](O)[C@H](O[C@H]3[C@H](O)[C@@H](O)[C@H](O[C@H]4[C@H](O[C@H]5CC[C@]6(C)[C@@H]7CC[C@]89C(=O)O[C@@](C)(/C=C\C=C(C)C)[C@@]8(O)[C@@H](OC(C)=O)C[C@@]9(C)C7=CC[C@H]6C5(C)C)OC[C@@H](OS(=O)(=O)[O-])[C@@H]4O)O[C@@H]3C)OC[C@H]2O)O[C@H](CO)[C@H]1O.[Na+] [LNTERCEDENSIDE H] | 2.2 µg/mL | 3 µg/mL | 0.96 µg/mL | 2.2 µg/mL | 1 µg/mL | 3.7 µg/mL | 1.9 µg/mL | 1.4 µg/mL | 3.2 µg/mL | 1.8 µg/mL
